From patent US4263286A, “Therapeutic agent for consciousness disorder and perception and movement disorder” (Nippon Shoji Kaisha, Ltd., priority 1978, dated 1981)
Where a name gives a salt, the structure may show the parent alone.

Tests used:
[1] = system: sciatic nerve; assay: Afferent evoked potential in the cerebral cortex in response to stimulation of the sciatic nerve; type: in vivo
Description: In order to test the effect of the active compound of the present invention on perception, an experiment was carried out on afferent evoked potential in response to stimulation of the sciatic nerve.
When the sciatic nerve is stimulated, the potential evoked in the cerebral cortex is recorded and summed up. These evoked electric potentials are firstly three small negative responses, subsequently a positive response and followed by two large negative responses, which are designated as N1, N2, N3, P, N4 and N5, respectively.
In order to examine the effect of a compound of the present invention: dilinoleoylphosphatidic acid disodium salt on these components, N1, N2, N3, P, N4 and N5, sciatic nerve was simulated once per 1 second and the data of 50 times of stimulus were recorded and summed up. The results are shown in the accompanying FIGS. 15, 16, 17, 18, 19 and 20 which correspond to the data of N1, N2, N3, P, N4 and N5, respectively.

[2] = system: male mice; assay: Toxicity in male mice, tail intravenous; type: in vivo, mouse; conditions: 100 mg/kg tail intravenous over 30 seconds; observed 75 hours
[3] = system: rabbits whose internal capsule was destroyed; conditions: known therapeutic agents; already confirmed by experiments; cited from earlier work
[4] = system: ICR mice; assay: 7-day toxicity in ICR mice; conditions: mouse, in vivo
[5] = system: Spragne-Dowley rats; assay: 7-day toxicity in rats; conditions: rat, in vivo

**Q.** With `CCCCC/C=C\C/C=C\CCCCCCCC(=O)OCC(COP(=O)(O)O)OC(=O)CCCCCCC/C=C\C/C=C\CCCCC` (centres unmarked) [dilinoleoylphosphatidic acid disodium salt] as the compound, how does the “effect on the afferent pathway” value ([1]; in vivo) read?
**A.** facilitatory effect on the afferent pathway

**Q.** What about the “effect on evoked potential components N1 and N2” value ([1]; stimulation once per 1 second, 50 summed, FIGS. 15, 16) of the same compound?
**A.** facilitatory effect on the components, N1 and N2, particularly on N1

**Q.** What about the mortality [2] of the same compound?
**A.** no mouse was died

**Q.** Which “effect on thresholds of evoked muscular discharge in fore- and hind-limbs” value (“effect on thresholds” below) [3] does the source give for `CN(C)CCOC(=O)COc1ccc(Cl)cc1.Cl` [Meclofenoxate hydrochloride, (4-chlorophenoxy)acetic acid 2-(dimethylamino)ethyl ester hydrochloride] here?
**A.** decreasing effect of the thresholds of evoked muscular discharge

**Q.** With “Cytochrome C: already used as therapeutic agent for the treatment of consciousness disorder and perception and movement disorder” as the compound, how does the “effect on thresholds” value [3] read?
**A.** decreasing effect of the thresholds of evoked muscular discharge

**Q.** Which “difference between male and female” value [4] does the source give for polyenephosphatidylcholine here?
**A.** no difference between male and female

**Q.** And the symptoms [4]?
**A.** no abnormal symptom was observed except that the voluntary movement was slightly inhibited in the groups administered in a large dose

**Q.** And the “difference between male and female” value [5]?
**A.** no difference between male and female

**Q.** And the symptoms [5]?
**A.** no abnormal symptom was observed except that the voluntary movement was slightly inhibited in the groups administered in a large dose

**Q.** With `Cc1ncc(CSSCc2cnc(C)c(O)c2CO)c(CO)c1O` [Pyrithioxin, 3,3'-(dithiodimethylene)-bis[5-hydroxy-6-methyl-4-pyridinemethanol]] as the compound, how does the “effect on thresholds” value [3] read?
**A.** decreasing effect of the thresholds of evoked muscular discharge

**Q.** Which “effect on thresholds” value [3] does the source give for `C[N+](C)(C)CCOP(=O)(O)OP(=O)([O-])OC[C@H]1O[C@@H](n2ccc(N)nc2=O)[C@H](O)[C@@H]1O` [Citicoline, cytidine diphosphate choline] here?
**A.** decreasing effect of the thresholds of evoked muscular discharge
